This is an account of results in ChEMBL document CHEMBL1201862, “PubChem BioAssay data set” (2004).

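All cell lines were grown in 96-well plates and treated with compound for 48 hours. GI50 = concentration required for 50% inhibition of growth.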 Active and inactive are the calls of the source. Rule as the data show it: active = GI50 up to about 1.1 µM and inactive = higher.

Test systems include CAKI-1; CCRF-CEM; COLO 205; HCT-116; HCT-15; HL-60; K562; LOX IMVI; MOLT-4; OVCAR-3; OVCAR-8; SF-268; SF-539; SK-MEL-2; SK-MEL-5; SK-OV-3; SN12C; SNB-75; SW-620; U-251.
Common to all, as to experiment: DTP human tumour cell line panel, 48 h

For `COc1ccc(C(c2cc3c(cc2O)OCO3)N2CCOCC2)cc1OC` (stereo not given), the GI50 is 12.8 µM (inactive) with CAKI-1; 0.327 µM (active) in the assay with CCRF-CEM; 15.3 µM (inactive) in the assay on COLO 205; 10.9 µM (inactive) in the assay on HCT-116; 3.95 µM in the assay on HCT-15; 25.4 µM (inactive) in the assay on HL-60. Besides, the GI50 in the assay on K562 was 7.6 µM (inactive); in the assay on LOX IMVI, 4.01 µM (inactive); in the assay with MOLT-4, 3.48 µM (inactive); with OVCAR-3 it was 7.8 µM (inactive); in the assay on OVCAR-8, 5.02 µM (inactive); in the assay on SF-268, 10.9 µM (inactive). The GI50 in the assay with SF-539 was 14.6 µM (inactive); with SK-MEL-2, 16.6 µM (inactive); in the assay on SK-MEL-5, 13.5 µM (inactive); in the assay with SK-OV-3, 14.1 µM (inactive); with SN12C, 10.2 µM (inactive); in the assay with SNB-75, 15.3 µM (inactive). Besides, the GI50 in the assay with SW-620 is 2.72 µM (inactive); in the assay with U-251, 9.64 µM (inactive).
As to `Cc1cc2nc3c(C)c4ccccc4c(C)n3c2cc1C`, the GI50 was 2.94 µM (inactive) in the assay with CAKI-1; 3.84 µM (inactive) in the assay with CCRF-CEM; 2.15 µM (inactive) with COLO 205; 1.01 µM (active) with HCT-116; 1.97 µM in the assay on HCT-15; 3.22 µM (inactive) with HL-60. The GI50 in the assay on K562 was 5.21 µM (inactive); in the assay on LOX IMVI, 0.857 µM (active); with MOLT-4, 2.39 µM (inactive); with OVCAR-3, 1.95 µM (inactive); in the assay with OVCAR-8, 1.73 µM (inactive); in the assay with SF-268, 3.85 µM (inactive). Besides, the GI50 was 1.56 µM (inactive) in the assay on SF-539; 3.66 µM (inactive) with SK-MEL-2; 2.26 µM (inactive) in the assay with SK-MEL-5; 7.06 µM (inactive) in the assay with SK-OV-3; 2.07 µM (inactive) with SN12C; 4.97 µM (inactive) in the assay on SNB-75. Moreover, the values for the GI50 with SW-620 and in the assay with U-251 were 2.49 µM (inactive) and 3.33 µM (inactive), respectively.
For the compound `COc1cc2c(c(OC)c1OC)-c1[nH]ncc1CC2`, the GI50 was 60.7 µM (inactive) with CAKI-1; > 100 µM (inactive) with CCRF-CEM; > 100 µM (inactive) with COLO 205; > 100 µM (inactive) in the assay with HCT-116; over 100 µM in the assay with HCT-15; > 100 µM (inactive) in the assay on HL-60. In addition, the GI50 with K562, with LOX IMVI, in the assay with MOLT-4, in the assay on OVCAR-3, in the assay on OVCAR-8 and with SF-268 was > 100 µM (inactive) each time. Moreover, the GI50 in the assay on SF-539, in the assay with SK-MEL-2, in the assay with SK-MEL-5, in the assay with SK-OV-3, with SN12C and with SNB-75 was > 100 µM (inactive) in each case. For the same compound, the GI50 in the assay on SW-620 and with U-251 was > 100 µM (inactive) each time.
For the compound `O=C1C=CC2(O[C@@H](Cc3ccccc3)[C@H](Cc3ccccc3)O2)C(SC(=O)c2ccccc2)C1` (stereo not given in full), the GI50 in the assay on CAKI-1 is 1.26 µM (inactive); in the assay on CCRF-CEM it was 0.208 µM (active); in the assay on COLO 205, 1.73 µM (inactive); in the assay on HCT-116, 0.158 µM (active); with HCT-15 it was 0.298 µM; in the assay on HL-60, 1.18 µM (inactive). For the same compound, the GI50 in the assay on K562 is 1.64 µM (inactive); in the assay on LOX IMVI, 0.38 µM (active); in the assay on MOLT-4, 0.19 µM (active); in the assay on OVCAR-3, 0.594 µM (active); with OVCAR-8, 0.209 µM (active); in the assay on SF-268 it was 0.904 µM (active). Further, the GI50 in the assay on SF-539 was 1.66 µM (inactive); with SK-MEL-2, 1.66 µM (inactive); in the assay on SK-MEL-5 it was 1.66 µM (inactive); in the assay with SK-OV-3, 2.75 µM (inactive); in the assay on SN12C it was 1.62 µM (inactive); in the assay with SNB-75 it was 1.91 µM (inactive). The GI50 in the assay on SW-620 is 0.231 µM (active); with U-251 it was 1.3 µM (inactive).
